Test results: patent publication US7205298B2, “Substituted triazine kinase inhibitors” (Janssen Pharmaceutica N.V., priority 2002, dated 2007)

Key:
[1] = test system: PC-3 prostate adenocarcinoma; experiment: Inhibition of cell proliferation, 14C-thymidine incorporation, PC-3; format: cell-based; settings: Homo sapiens
Procedure: The ability of a test compound to inhibit the proliferation of cell growth was determined by measuring incorporation of ^14C-labelled thymidine into newly synthesized DNA within the cells. This method was used on cell lines derived from carcinomas originating from several tissues such as HeLa cervical adenocarcinoma (American Type Culture Collection (ATCC), Virginia, Cat. #CCL-2), HCT-116 colon carcinoma (CCL-247), MDA-MB-231 (Xenogen Corp.), PC-3 prostate adenocarcinoma (ATCC CRL-1435) and A375 malignant melanoma (ATCC CRL-1619).
Using this method, the effect of a compound on cell growth of cells with many different phenotypes can be determined. Cells were trypsinized and counted and 3000–8000 cells were added to each well of a 96-well CytoStar tissue culture treated scintillating microplate (Amersham #RPNQ0160) in complete medium in a volume of 100 μl. Cells were incubated for 24 hours in complete medium at 37° C. in an atmosphere containing 5% CO2. 1 μL of test compound in 100% DMSO was then added to the wells of the plate. DMSO only was added to control wells. Cells were incubated for 24 more hours in complete medium at 37° C. in an atmosphere containing 5% CO2. […] The degree of methyl ^14C-thymidine incorporation was quantified on a Packard Top Count.

[2] = target: T1, Casein Kinase 1 (CK1 delta isoform) (Rattus norvegicus, UniProt Q06486); experiment: Kinase selectivity assay Casein Kinase 1; format: biochemical
T1 construct: a truncation at amino acid 318 of the C-terminal portion of the rat CK1 delta isoform; purchased New England Biolabs 6030; host or cells: E. coli
T1 sequence (Q06486 1-317): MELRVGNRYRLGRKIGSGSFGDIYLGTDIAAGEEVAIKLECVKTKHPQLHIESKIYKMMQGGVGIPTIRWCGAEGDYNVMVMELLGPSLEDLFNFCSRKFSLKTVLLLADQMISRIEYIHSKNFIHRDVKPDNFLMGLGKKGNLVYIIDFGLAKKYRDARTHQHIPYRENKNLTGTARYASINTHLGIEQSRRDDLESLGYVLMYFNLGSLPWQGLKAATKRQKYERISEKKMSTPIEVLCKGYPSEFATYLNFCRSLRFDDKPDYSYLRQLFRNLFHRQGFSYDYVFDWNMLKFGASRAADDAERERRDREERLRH
Procedure: Assays to test compound inhibition of other kinases were preformed using methods that measure the amount of phosphorylation of a biotinylated peptide substrate. Biotinylated peptide substrates were selected from the literature as appropriate for the enzyme being evaluated. […] Assay conditions vary slightly for each protein kinase, for example, insulin receptor kinase requires 10 mM MnCl2 for activity and Calmodulin-dependent protein kinase requires calmodulin and 2 mM CaCl2. The reaction mixture was dispensed into the wells of a streptavidin coated Flashplate and 1 μL test compound in 100% DMSO was added to a 100 μL reaction volume resulting in a final concentration of 1% DMSO in the reaction. Enzyme was diluted in 50 mM Tris-HCl pH=8.0, 0.1% BSA and added to each well. The reaction was incubated for one hour at 30° C. in the presence of a test compound. After one hour the reaction mix was aspirated from the plate and the plate was washed with PBS containing 100 mM EDTA. The plate was read on a scintillation counter to determine ^33P-γ-ATP incorporated into the immobilized peptide substrate. Test compounds were assayed in duplicate at 8 concentrations (100 μM, 10 μM, 1 μM, 100 nM, 10 nM, 1 nM, 100 pM, 10 pM). A maximum and minimum signal for the assay was determined on each plate. […] Known inhibitor compounds appropriate for the kinase being assayed were also included on each plate. […]

OCCCNc1cncc(-c2ncnc(Nc3cccc(Cl)c3)n2)c1 [Compound 1, 3-((5-(4-((3-chlorophenyl)amino)-1,3,5-triazin-2-yl)-3-pyridinyl)amino)-1-propanol]
IC50 [1]: 259 nM
IC50 [2]: 115 nM
